This note sets out measurements from US5120752A, “Cyclopropyl derivative lipoxygenase inhibitors” (Abbott Laboratories, priority 1990, dated 1992).

Assay [1] deals with LTB4 biosynthesis in human whole blood. Kind of assay: Inhibition of calcium ionophore-induced LTB4 biosynthesis in human whole blood. Type of assay: cell-based. Conditions: for IC50: A23187 50 μM, 15 min preincubation, read-out: Inhibition of Leukotriene Biosynthesis IC50; for inhibition at 0.2 µM: read-out: Inhibition of Leukotriene Biosynthesis (% at 0.2 μM). The procedure:
Inhibition of leukotriene biosynthesis was evaluated in an assay, involving calcium ionophore-induced LTB4 biosynthesis expressed by human whole blood. Heparinized (20 U/mL) human blood (0.3 mL) was preincubated with test compound or vehicle for 15 min. at 37° C. Eicosanoid biosynthesis was initiated by adding calcium ionophore (A23187) in DMSO to a final concentration of 50 μM and terminated after 30 min. by rapid cooling of the blood in an ice bath and centrifuging at 3° C. for 10 min at 2500×g. The plasma was mixed with 4 volumes of methanol and allowed to stand for at least 30 min. at 3° C. prior to centrifuging at 1800×g for 10 min. The level of LTB4 in aliquots of the methanol-plasma extract was analyzed by radio-immunoassay or enyme-immunoassay techniques.

The next assay concerns leukotriene biosynthesis. Kind of assay: Inhibition of leukotriene biosynthesis in vivo after oral administration, rat peritoneal anaphylaxis model. Conditions: 100 μmol/kg oral (gavage), 1 h before antigen challenge, read-out: % Inhibition of Leukotrienes at 100 μmol/kg oral dose. The procedure:
Inhibition of the biosynthesis of leukotrienes in vivo after oral administration of representative test compounds of this invention was determined using a rat peritoneal anaphylaxis model in a similar manner as that described by Young and coworkers (Young, P. R.; Dyer, R. D.; Carter, G. W. Fed. Proc., Fed. Am. Soc. Exp. Biol. 1985, 44, 1185). In this model rats were injected intraperitoneally (ip) with rabbit antibody to bovine serum albumin (BSA) and three hours later injected ip with BSA to induce an antgen-antibody response. Rats were sacrificed 15 minutes after this challenge and the peritoneal fluids were collected and analyzed for leukotriene levels. Test compounds were administered by gavage one hour prior to the antigen challenge. Percent inhibition values were determined by comparing the treatment group to the mean of the control group. The results of this assay, for representative compounds of the present invention, at an oral dose level of […] are presented in Table 2, and at an oral dose of […] in Table 3.

The structures appear in SMILES notation.

Broadly, the IC50 is the point on the concentration scale where inhibition reaches its midpoint. In the case of `NC(=O)N(O)C[C@@H]1C[C@H]1c1cccc(Oc2ccc(OCCO)cc2)c1` (relative stereo) [Example 161, N-(1-trans-(2-(3-(4-(2-hydroxyethoxy)phenoxy)phenyl)cyclopropyl)methyl)-N-hydroxyurea], the IC50 in assay [1] was determined as 0.17 µM.
As for `Cc1cccc(Oc2cccc([C@@H]3C[C@H]3CN(O)C(N)=O)c2)n1` (relative stereo) [Example 163, N-(1-trans-(2-(3-(6-methyl-2-pyridyloxy)phenyl)cyclopropyl)methyl)-N-hydroxyurea], the IC50 in assay [1] amounted to 0.25 µM.
The same measure, in the same setting: the figure for `NC(=O)N(O)C[C@@H]1C[C@H]1c1cccc(Oc2cnc3ccccc3c2)c1` (relative stereo) [Example 164, N-(1-trans-(2-(3-(3-quinonyloxy)phenyl)cyclopropyl)methyl)-N-hydroxyurea] is 0.61 µM; for `CCOc1ccc(Oc2cccc([C@@H]3C[C@H]3CN(O)C(=O)NC3CC3)c2)cc1` (relative stereo) [Example 165] it is 0.74 µM.
For `NC(=O)N(O)C[C@@H]1C[C@H]1c1cccc(Oc2nccs2)c1` (relative stereo) [Example 166, N-(1-trans-(2-(3-(2-thiazolyloxy)phenyl)cyclopropyl)methyl)-N-hydroxyurea], in the assay with leukotriene biosynthesis, the inhibition in vivo at 100 µmol/kg amounted to 91%. Moreover, the IC50 in assay [1] amounted to 0.11 µM.
For `CCOc1ccc(Oc2cccc([C@@H]3C[C@H]3CN(O)C(N)=O)c2)cc1` (relative stereo) [Example 167, N-(1-trans-(2-(3-(4-ethoxyphenoxy)phenyl)cyclopropyl)methyl)-N-hydroxyurea] the same measures were 94% and 0.04 µM.
In the case of `NC(=O)N(O)C[C@@H]1C[C@H]1c1cccc(Oc2cccnc2)c1` (relative stereo) [Example 168, N-(1-trans-(2-(3-(3-pyridyloxy)phenyl)cyclopropyl)methyl)-N-hydroxyurea], the inhibition in vivo at 100 µmol/kg in the assay with leukotriene biosynthesis was determined as 99%. Also, the IC50 in assay [1] amounted to 0.05 µM.
Take `CCCc1ccc(Oc2cccc([C@@H]3C[C@H]3CN(O)C(N)=O)c2)cc1` (relative stereo) [Example 169, N-(1-trans-(2-(3-(4-propylphenoxy)phenyl)cyclopropyl)methyl)-N-hydroxyurea]: in the assay on leukotriene biosynthesis, the inhibition in vivo at 100 µmol/kg turned out to be 98%. In addition, the IC50 in assay [1] turned out to be 0.17 µM.
For orientation: inhibition means the share of the control response that was lost under treatment. For the compound `Cc1ccccc1Oc1cccc([C@@H]2C[C@H]2CN(O)C(N)=O)c1` (relative stereo) [Example 170, N-(1-trans-(2-(3-(2-methylphenoxy)phenyl)cyclopropyl)methyl)-N-hydroxyurea], in the assay on leukotriene biosynthesis, the inhibition in vivo at 100 µmol/kg was 94%. The inhibition at 0.1 µM in assay [1] (0.1 μM, read-out: Inhibition of Leukotriene Biosynthesis (% at 0.1 μM)) amounted to 89%.
As to `CNC(=O)N(O)C[C@@H]1C[C@H]1c1cccc(Oc2ccccn2)c1` (relative stereo) [Example 171, N-(1-trans-(2-(3-(2-pyridyloxy)phenyl)cyclopropyl)methyl)-N-hydroxy-N'-methylurea], the inhibition at 0.39 µM in assay [1] (0.39 μM, read-out: Inhibition of Leukotriene Biosynthesis (% at 0.39 μM)) was 40%.
In the case of `CNC(=O)N(O)C[C@@H]1C[C@H]1c1cccc(Oc2cccc(C)c2)c1` (relative stereo) [Example 173, N-(1-trans-(2-(3-(3-methylphenoxy)phenyl)cyclopropyl)methyl)-N-hydroxy-N-methylurea], the IC50 in assay [1] turned out to be 0.23 µM.
Regarding `Cc1cccc(Oc2cccc([C@@H]3C[C@H]3CN(O)C(N)=O)c2)c1` (relative stereo) [Example 174, N-(1-trans-(2-(3-(3-methylphenoxy)phenyl)cyclopropyl)methyl)-N-hydroxyurea], in the assay on leukotriene biosynthesis, the inhibition in vivo at 100 µmol/kg came to 96%. Besides, the IC50 in assay [1] stood at 0.14 µM.
Take `CCc1ccc(Oc2cccc([C@@H]3C[C@H]3CN(O)C(=O)NC)c2)cc1` (relative stereo) [Example 175, N-(1-trans-(2-(3-(4-ethylphenoxy)phenyl)cyclopropyl)methyl)-N-hydroxy-N'-methyl-hydroxyurea]: the half-maximal inhibitory concentration (IC50) in assay [1] was determined as 0.2 µM.
On to `CCc1ccc(Oc2cccc([C@@H]3C[C@H]3CN(O)C(N)=O)c2)cc1` (relative stereo) [Example 176, N-(1-trans-(2-(3-(4-ethylphenoxy)phenyl)cyclopropyl)methyl)-N-hydroxyurea], for which the inhibition in vivo at 100 µmol/kg in the assay on leukotriene biosynthesis came to 87%. Also, the IC50 in assay [1] was determined as 0.17 µM.
Turning to `CNC(=O)N(O)C[C@@H]1C[C@H]1c1cccc(Oc2ccc(F)cc2)c1` (relative stereo) [Example 177, N-(1-trans-(2-(3-(4-fluorophenoxy)phenyl)cyclopropyl)methyl)-N-hydroxy-N'-methylurea], the inhibition at 0.2 µM in assay [1] turned out to be 69%.
In the case of `NC(=O)N(O)C[C@@H]1C[C@H]1c1cccc(Oc2cccs2)c1` (relative stereo) [Example 178, N-(1-trans-(2-(3-(2-thienyloxy)phenyl)cyclopropyl)methyl)-N-hydroxyurea], the inhibition in vivo at 100 µmol/kg with leukotriene biosynthesis came out at 60%. For the same compound, in assay [1], the inhibition at 0.2 µM was 64%.
With `CNC(=O)N(O)C[C@@H]1C[C@H]1c1cccc(Oc2ccc(C)cc2)c1` (relative stereo) [Example 179, N-(1-trans-(2-(3-(4-methylphenoxy)phenyl)cyclopropyl)methyl)-N-hydroxy-N'-methylurea], the inhibition in vivo at 100 µmol/kg in the assay with leukotriene biosynthesis was determined as 61%. In assay [1], the inhibition at 0.2 µM turned out to be 61%.
For `CNC(=O)N(O)C[C@@H]1C[C@H]1c1ccoc1` (relative stereo) [Example 185, N-(1-trans-(2-(3-furanyl)cyclopropyl)methyl)-N-hydroxy-N'-methylurea], the IC50 in assay [1] was 0.24 µM.
As to `CNC(=O)N(O)C[C@@H]1C[C@H]1c1ccsc1` (relative stereo) [Example 187, N-(1-trans-(2-(3-thienyl)cyclopropyl)methyl)-N-hydroxy-N'-methylurea], the IC50 in assay [1] amounted to 0.21 µM.
Consider `NC(=O)N(O)C[C@@H]1C[C@H]1c1ccsc1` (relative stereo) [Example 188, N-(1-trans-(2-(3-thienyl)cyclopropyl)methyl)-N-hydroxyurea], for which, in the assay with leukotriene biosynthesis, the inhibition in vivo at 100 µmol/kg turned out to be 97%. For the same compound, in assay [1], the IC50 is 0.32 µM.
As for `CC(=O)N(O)C[C@@H]1C[C@H]1c1cccs1` (relative stereo) [Example 190, N-(1-trans-(2-(2-thienyl)cyclopropyl)methyl)-N-hydroxyacetamide], the IC50 in assay [1] worked out at 0.2 µM.
Same read-out and setting: the figure for `CC(=O)N(O)C[C@@H]1C[C@H]1c1ccco1` (relative stereo) [Example 195, N-(1-trans-(2-(2-furanyl)cyclopropyl)methyl)-N-hydroxyacetamide] is 0.19 µM.
Regarding `NC(=O)N(O)C[C@@H]1C[C@H]1c1cnc(Oc2ccc(Cl)cc2)s1` (relative stereo) [Example 199, N-(1-trans-(2-(2-(4-chlorophenoxy)-5-thiazolyl)cyclopropyl)methyl)-N-hydroxyurea], in assay [1], the IC50 was found to be 0.06 µM.
Consider `CC([C@@H]1C[C@H]1c1cccc(Oc2ccccn2)c1)N(O)C(N)=O` (single isomer, unassigned) [Example 172a, N-(1-trans-(2-(3-(2-pyridyloxy)phenyl)cyclopropyl)ethyl)-N-hydroxyurea], for which, in assay [1], the IC50 turned out to be 0.96 µM.
Same read-out and setting: the figure for `Cc1ccc(Oc2cccc([C@@H]3C[C@H]3C(C)CN(O)C(N)=O)c2)cc1` (stereo partly drawn) [Example 162, N-(2-trans-(2-(3-(4-methylphenoxy)phenyl)cyclopropyl)propyl)-N-hydroxyurea] is 0.25 µM; for `CNC(=O)N(O)C(C)[C@@H]1C[C@H]1c1ccc(C)s1` (stereo partly drawn) [Example 181, N-(1-trans-(2-(5-methyl-2-thienyl)cyclopropyl)ethyl)-N-hydroxy-N'-methylure] it is 0.6 µM.
On the same count and under the same terms, for `Cc1ccc([C@@H]2C[C@H]2C(C)N(O)C(N)=O)s1` (stereo partly shown) [Example 182] the value was 0.69 µM; for `CNC(=O)N(O)C(C)[C@@H]1C[C@H]1c1ccco1` (stereo partly drawn) [Example 183, N-(1-trans-(2-(2-furanyl)cyclopropyl)ethyl)-N-hydroxy-N'-methylurea], 0.62 µM; for `CNC(=O)N(O)C(C)[C@@H]1C[C@H]1c1ccc(C)o1` (stereo partly drawn) [Example 184, N-(1-trans-(2-(5-methyl-2-furanyl)cyclopropyl)ethyl)-N-hydroxy-N'-methylurea], 0.85 µM.
The same measure, in the same setting: the figure for `CNC(=O)N(O)C(C)[C@@H]1C[C@H]1c1ccsc1` (stereo partly drawn) [Example 186, N-(1-trans-(2-(3-thienyl)cyclopropyl)ethyl)-N-hydroxy-N'-methylurea] is 0.47 µM; for `CNC(=O)N(O)C(C)[C@@H]1C[C@H]1c1ccoc1` (stereo partly drawn) [Example 191, N-(1-trans-(2-(3-furanyl)cyclopropyl)ethyl)-N-hydroxy-N'-methylurea] it is 0.83 µM.
As to `CC(=O)N(O)C(C)[C@@H]1C[C@H]1c1cccs1` (stereo partly drawn) [Example 196, N-(1-trans-(2-(2-thienyl)cyclopropyl)ethyl)-N-hydroxyacetamide], in assay [1], the IC50 came out at 0.98 µM.
Still for that read-out and setting: for `CC([C@@H]1C[C@H]1c1cccs1)N(O)C(N)=O` (stereo partly drawn) [Example 197, N-(1-trans-(2-(2-thienyl)cyclopropyl)ethyl)-N-hydroxyurea] the value was 1.6 µM.
